Where two headings read alike, the source gives them in different places.
How the values were obtained:
[1] = molecular target: T1, HSV1 uracil-DNA glycosylase (HSV1 UDG) (Human herpesvirus 1, UniProt P10186); experiment: Inhibition of HSV1 uracil-DNA glycosylase, [3H]uracil release from [3H]dUMP-containing DNA; type: biochemical; conditions: for Activity against viral UDG: at 200 μM; for Potency against HSV1 UDG relative to parent compound: hexAU derivatives vs 4, octAU derivatives vs 5
T1 construct: made in house
T1 sequence (P10186 whole entry): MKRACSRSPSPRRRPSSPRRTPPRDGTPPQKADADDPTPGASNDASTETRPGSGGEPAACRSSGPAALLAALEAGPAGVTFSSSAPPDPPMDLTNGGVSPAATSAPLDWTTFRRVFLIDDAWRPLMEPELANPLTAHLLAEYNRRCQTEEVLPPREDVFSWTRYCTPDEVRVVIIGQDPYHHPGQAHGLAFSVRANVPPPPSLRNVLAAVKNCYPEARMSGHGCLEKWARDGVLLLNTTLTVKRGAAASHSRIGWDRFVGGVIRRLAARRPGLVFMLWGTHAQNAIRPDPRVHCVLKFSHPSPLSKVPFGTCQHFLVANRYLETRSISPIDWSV
Experimental: (§1) Compounds 2-8 were screened against purified HSV1 and human (HeLa) uracil-DNA glycosylases which were isolated by conventional enzyme purification protocols^1. Assays for inhibition by the compounds were conducted as described in the literature^1 by measuring [^3 H]uracil release from [^3 H]dUMP-containing DNA, in the presence of varying concentrations of test compounds. Control assays contained the same concentration of diluent, dimethylsulfoxide. IC50 s (the concentration of compound that causes half-maximal inhibition of [^3 H]uracil release from [^3 H]dUMP-containing DNA) for each of the compounds were calculated.
(§2) a. Isolation and assay of uracil-DNA glycosylases. The viral and human (HeLa) uracil-DNA glycosylases are isolated with conventional enzyme purification protocols (Focher et al., 1993). Both long and short forms of the HSV1 enzyme have been cloned and expressed in E. Coli (Argnani et al., 1995), and have essentially identical enzymatic properties and inhibitor sensitivities. Assays for new inhibitors of viral and human UDG are done as described (Focher et al., 1993) by measuring [^3 H]uracil release from [^3 H]dUMP-DNA. Mechanism studies involve classical variable substrate assays to determine if inhibition is competitive with substrate or product.

[2] = molecular target: T2, human (HeLa) uracil-DNA glycosylase (Homo sapiens, UniProt P13051); conditions: cited from earlier work; for IC50: compounds 4 and 5, from Focher et al., 1993, read-out: IC50 Human-UDG
T2 construct: The viral and human (HeLa) uracil-DNA glycosylases are isolated with conventional enzyme purification protocols; endogenous in cells; host or cells: HeLa
T2 sequence (P13051 whole entry): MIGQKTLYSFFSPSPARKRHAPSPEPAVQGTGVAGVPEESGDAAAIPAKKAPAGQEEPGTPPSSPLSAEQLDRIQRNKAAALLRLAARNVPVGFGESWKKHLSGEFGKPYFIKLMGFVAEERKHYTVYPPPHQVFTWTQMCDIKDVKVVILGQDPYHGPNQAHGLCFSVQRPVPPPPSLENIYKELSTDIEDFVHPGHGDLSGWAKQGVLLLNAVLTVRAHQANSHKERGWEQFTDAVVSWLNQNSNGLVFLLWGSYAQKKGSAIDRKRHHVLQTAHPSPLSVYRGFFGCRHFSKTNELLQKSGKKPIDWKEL

[3] = molecular target: T1, HSV1 uracil-DNA glycosylase (HSV1 UDG); conditions: cited from earlier work
[4] = Solubility observations (assay medium, water); type: physicochemical
[5] = molecular target: T2, human (HeLa) uracil-DNA glycosylase; experiment: Inhibition of human (HeLa) uracil-DNA glycosylase, [3H]uracil release from [3H]dUMP-containing DNA; type: biochemical; conditions: Table 3; read-out: IC50 Human-UDG
Experimental: as §1, §2

[6] = Table 1, from literature (footnote a), read-out: IC50
[7] = compounds 4 and 5, from Focher et al., 1993, read-out: IC50 HSV1-UDG
[8] = Table 2, read-out: IC50, experimental value
[9] = Table 3, read-out: IC50 HSV1-UDG

Question: Which “Activity against viral UDG” value [1] does the source give for `CCCCCCc1ccc(Nc2cc(=O)n(CC)c(=O)[nH]2)cc1` [3-ethyl-6-(4-n-hexylanilino)uracil] here?
Answer: inactive

Question: With `Nc1cc(=O)[nH]c(=O)[nH]1` [6-Aminouracil, reference compound] as the compound, how does the IC50 ([1]; text b184, read-out: IC50 HSV1 UDG) read?
Answer: 1000 µM

Question: And the “Inhibition of human UDG” value ([2]; reported (Caradonna et al, 1981))?
Answer: inhibit weakly

Question: With `CCCCCCc1ccc(Nc2[nH]c(=O)[nH]c(=O)c2C)cc1` [(4-n-hexylanilino)thymine, 6-(4-Hexylanilino)thymine] as the compound, how does the “Activity against viral UDG” value [1] read?
Answer: inactive

Question: For `CCc1ccc(Nc2cc(O)nc(O)n2)cc1` [Compound 2], which IC50 [3, 6] is on record?
Answer: 500 µM

Question: For `CCCCCCc1ccc(Nc2cc(O)nc(O)n2)cc1` [Compound 4, 6-(4-n-Hexylanilino)uracil], which IC50 [3, 6] is on record?
Answer: 30 µM

Question: What about the IC50 [3, 7] of the same compound?
Answer: 30 µM

Question: And the IC50 [2]?
Answer: > 300 µM

Question: With `CCCCCCCCc1ccc(Nc2cc(=O)[nH]c(=O)[nH]2)cc1` [Compound 5, 6-(4-n-octylanilino)uracil] as the compound, how does the “Mode of inhibition of HSV1 UDG” value [1] read?
Answer: competitive with DNA

Question: What about the “Water solubility” value [4] of the same compound?
Answer: poor water solubility

Question: What about the IC50 [3, 6] of the same compound?
Answer: 8 µM

Question: And the IC50 [3, 7]?
Answer: 8 µM

Question: And the IC50 [2]?
Answer: > 300 µM

Question: What does the source list for `CCCCCCCCCCc1ccc(Nc2cc(O)nc(O)n2)cc1` [Compound 6, 6-(4-Decylanilino)uracil]?
Answer: IC50 [1, 8]: 35 µM; IC50 [5]: > 200 µM

Question: Which IC50 [1, 8] does the source give for `CCCCCCOc1ccc(Nc2cc(O)nc(O)n2)cc1` [Compound 7, 6-(4-Hexyloxyanilino)uracil] here?
Answer: 30 µM

Question: Which IC50 [1, 8] does the source give for `CCCCCCCCOc1ccc(Nc2cc(O)nc(O)n2)cc1` [Compound 8, 6-(4-Octyloxyanilino)uracil] here?
Answer: 25 µM

Question: Which IC50 ([1]; read-out: IC50, experimental value) does the source give for `CCCCCCCCc1ccc(Oc2cc(=O)[nH]c(=O)[nH]2)cc1` [Compound 9, 6-(4-Octylphenoxy)uracil] here?
Answer: 150 µM

Question: What about the IC50 [5] of the same compound?
Answer: > 300 µM

Question: Which IC50 [5] does the source give for `CCCCCCc1ccc(Nc2cc(=O)[nH]c(=O)n2C)cc1` [Compound 16, 1-Methyl-6-(4-hexylanilino)uracil] here?
Answer: > 200 µM

Question: For `CCCCCCc1ccc(Nc2cc(=O)[nH]c(=O)n2CC)cc1` [Compound 17, 1-Ethyl-6-(4-hexylanilino)uracil], which IC50 [5] is on record?
Answer: > 200 µM

Question: With `CCCCCCc1ccc(Nc2cc(=O)[nH]c(=O)n2CCC)cc1` [Compound 18, 1-Propyl-6-(4-hexylanilino)uracil] as the compound, how does the IC50 [5] read?
Answer: > 200 µM

Question: For `CCCCCCc1ccc(Nc2cc(=O)[nH]c(=O)n2CCOC)cc1` [Compound 19, 1-(2-Methoxyethyl)-6-(4-hexylanilino)uracil], which IC50 [1, 9] is on record?
Answer: > 100 µM

Question: For `CCCCCCc1ccc(Nc2cc(=O)[nH]c(=O)n2CCCOC)cc1` [Compound 20, 1-(3-Methoxypropyl)-6-(4-hexylanilino)uracil], which IC50 [1, 9] is on record?
Answer: > 100 µM

Question: Which results are given for `CCCCCCc1ccc(Nc2cc(=O)[nH]c(=O)n2CCO)cc1` [Compound 21, 1-(2-Hydroxyethyl)-6-(4-hexylanilino)uracil]?
Answer: IC50 [1, 9]: 20 µM; Potency against HSV1 UDG relative to parent compound [1]: equipotent with 4

Question: For `CCCCCCc1ccc(Nc2cc(=O)[nH]c(=O)n2CCCO)cc1` [Compound 22, 1-(3-Hydroxypropyl)-6-(4-hexylanilino)uracil], which “Potency against HSV1 UDG, fold weaker than 4” value [1] is on record?
Answer: 3 fold

Question: What about the IC50 ([1]; read-out: IC50 HSV1-UDG) of the same compound?
Answer: 90 µM

Question: What does the source list for `CCCCCCCCc1ccc(Nc2cc(=O)[nH]c(=O)n2CCOC)cc1` [Compound 24, 1-(2-Methoxyethyl)-6-(4-octylanilino)uracil]?
Answer: IC50 [1, 9]: 15 µM; Potency against HSV1 UDG relative to parent compound [1]: nearly as potent

Question: For `CCCCCCCCc1ccc(Nc2cc(=O)[nH]c(=O)n2CCO)cc1` [Compound 25, 1-(2-Hydroxyethyl)-6-(4-octylanilino)uracil], which IC50 [1, 9] is on record?
Answer: 10 µM

Question: What about the “Potency against HSV1 UDG relative to parent compound” value [1] of the same compound?
Answer: as a potent an inhibitor as 5

Question: Which “Mode of inhibition of human UDG” value ([2]; reported (Griffiths 1995)) does the source give for `O=c1cc[nH]c(=O)[nH]1` [uracil] here?
Answer: non-competitive

From patent US6177437A, “Inhibitors of Herpes Simplex virus uracil-DNA glycosylase” (University of Massachusetts Medical Center, priority 1999, dated 2001)
